Measurements as given in publication doi:10.1101/2025.11.02.686125v3 (bioRxiv, 2025).
Values after ≈ are worked out from the molar mass of the structure shown. Like-named read-outs stand apart in the source and are kept apart here. Where a SMILES comes first, the peptide text is derived from it. Bridges are numbered along the chain shown (N, C = ends). [ ]: non-standard residue; d: D form. The star is where a group is joined. NMeT = CN[C@H](C(=O)O)[C@@H](C)O; dNMeL = CN[C@H](CC(C)C)C(=O)O; NMeV = CN[C@H](C(=O)O)C(C)C; X1 = COC(=O)[C@H](N)CS*; X2 = N[C@H](CS*)C(=O)O

Columns and labels:
[1] = test system: Mtb strain mc^26206
[2] = test system: Mav strain MAH11; conditions: 40 h
[3] = test system: Msm (luc) cells

| SMILES | MIC Mtb ([1]; strain mc^26206, 40 h) | MIC Mav [2] | MIC Mtb [1] | Luminescence after benzyl alcohol pretreatment [3] | Luminescence after spermidine pretreatment [3] |
| --- | --- | --- | --- | --- | --- |
| CC(=O)N[C@@H](CSSC[C@@H](N)C(=O)O)C(=O)N(C)[C@H](C(=O)N1CCC[C@H]1C(=O)N(C)[C@@H]1C(=O)N[C@@H](CC(C)C)C(=O)N2CCC[C@H]2C(=O)N[C@@H](CC(C)C)C(=O)N(C)[C@@H](C(C)C)C(=O)N2CCC[C@H]2C(=O)N(C)[C@H](CC(C)C)C(=O)NCC(=O)O[C@@H]1C)C(C)C [cys-GM] (Ac-C(X2)[NMeV]P[NMeT]LPL[NMeV]P[dNMeL]G; ester 4-C) | > 32 µM | > 32 µM | – | – | – |
| COC(=O)[C@H](N)CSSC[C@H](NC(C)=O)C(=O)N(C)[C@H](C(=O)N1CCC[C@H]1C(=O)N(C)[C@@H]1C(=O)N[C@@H](CC(C)C)C(=O)N2CCC[C@H]2C(=O)N[C@@H](CC(C)C)C(=O)N(C)[C@@H](C(C)C)C(=O)N2CCC[C@H]2C(=O)N(C)[C@H](CC(C)C)C(=O)NCC(=O)O[C@@H]1C)C(C)C [cys-ME-GM] (Ac-C(X1)[NMeV]P[NMeT]LPL[NMeV]P[dNMeL]G; ester 4-C) | – | 4 µM (≈ 5.29 µg/mL) | 2 µM (≈ 2.64 µg/mL) | – | – |
| O=C(O)[C@H]1CSC(c2nc3ccc(O)cc3s2)=N1 [D-luciferin] | – | – | – | modestly reduced the accumulation | significant loss of signal |
